The values below come from US20230017045A1, “PYRIDINE AND PYRIMIDINE CARBOXYLATE HERBICIDES AND METHODS OF USE THEREOF” (Dow AgroSciences LLC, priority 2017, published 2023).

Where two headings read alike, the source gives them in different places.

The experiment relates to test plant species. As to the kind of experiment: Post-emergent herbicidal activity test (greenhouse, foliar spray, visual growth reduction). The experiment is classed as in vivo. The settings on record: post-emergence, 336 h, 140 g ai/ha, 14 days after application. The method, then: Post-emergent Test: Seeds or nutlets of the desired test plant species were planted in Sun Gro Metro-Mix® 360 planting mixture, which typically has a pH of 6.0 to 6.8 and an organic matter content of about 30 percent, in plastic pots with a surface area of 64 square centimeters. In some aspects, to ensure good germination and healthy plants, a fungicide treatment and/or other chemical or physical treatment was applied. The plants were grown for 7-21 d in a greenhouse with an approximate 15 h photoperiod which was maintained at 23-29° C. during the day and 22-28° C. during the night. Nutrients and water were added on a regular basis and supplemental lighting was provided with overhead metal halide 1000-Watt lamps as necessary. Plants were used for testing when they reached the first or second true leaf stage. A weighed amount, determined by the highest rate to be tested, of each test compound was placed in a 25 mL glass vial and was dissolved in 4 mL of a 97:3 v/v mixture of acetone and DMSO to obtain concentrated stock solutions. […] The concentrated stock solutions obtained were diluted with 20 mL of an aqueous mixture containing acetone, water, isopropyl alcohol, DMSO, […] crop oil concentrate, and X-77 surfactant in a 48.5:39:10:1.5:1.0:0.02 v/v ratio to obtain spray solutions containing the application rate. Compound requirements are based upon a 12 mL application volume at a rate of 187 liters per hectare (L/ha). Formulated compounds were applied to the plant material with an overhead Mandel track sprayer equipped with […] nozzles calibrated to deliver 187 L/ha over an application area of 0.64 square meters at a spray height of 18 inches (43 cm) above the average plant canopy height. Control plants were sprayed in the same manner with the solvent blank. The treated plants and control plants were placed in a greenhouse as described above and watered by subirrigation to prevent wash-off of the test compounds. After 14 d, the condition of the test plants as compared with that of the nontreated and control plants was determined visually and scored on a scale of 0 to 100 percent where 0 corresponds to no injury and 100 corresponds to complete control. In the reporting of the results, Table A: Percent Growth Reduction Conversion Table was used.

[1] abbreviates: ALOMY: blackgrass (Alopecurus myosuroides), read-out: Visual Growth Reduction (%) 14 Days After Application, ALOMY.
Setting [2] is: AMARE: redroot pigweed (Amaranthus retroflexus), read-out: Visual Growth Reduction (%) 14 Days After Application, AMARE.
The mark [3] stands for this setting: AVEFA: wild oat (Avena fatua), read-out: Visual Growth Reduction (%) 14 Days After Application, AVEFA.
Setting [4] is: CHEAL: lambsquarters (Chenopodium album), read-out: Visual Growth Reduction (%) 14 Days After Application, CHEAL.
Where [5] appears, read: CIRAR: canada thistle (Cirsium arvense), read-out: Visual Growth Reduction (%) 14 Days After Application, CIRAR.
Setting [6] is: CYPES: yellow nutsedge (Cyperus esculentus), read-out: Visual Growth Reduction (%) 14 Days After Application, CYPES.
[7] abbreviates: DIGSA: crabgrass (Digitaria sanguinalis), read-out: Visual Growth Reduction (%) 14 Days After Application, DIGSA.
Where [8] appears, read: ECHCG: barnyardgrass (Echinochloa crus-galli), read-out: Visual Growth Reduction (%) 14 Days After Application, ECHCG.
Setting [9] is: ORYSA: rice (Oryza sativa), read-out: Visual Growth Reduction (%) 14 Days After Application, ORYSA.
The mark [10] stands for this setting: SETFA: giant foxtail (Setaria faberi), read-out: Visual Growth Reduction (%) 14 Days After Application, SETFA.
The mark [11] stands for this setting: SORVU: grain sorghum (Sorghum vulgare), read-out: Visual Growth Reduction (%) 14 Days After Application, SORVU.
The mark [12] stands for this setting: STEME: common chickweed (Stellaria media), read-out: Visual Growth Reduction (%) 14 Days After Application, STEME.
[13] abbreviates: TRZAS: wheat, spring (Triticum aestivum), read-out: Visual Growth Reduction (%) 14 Days After Application, TRZAS.
[14] abbreviates: IPOHE: ivy-leaf morning glory (Ipomoea hederacea), read-out: Visual Growth Reduction (%) 14 Days After Application, IPOHE.

As to `COC(=O)c1nc(-c2ccc(Cl)cc2)c(N)cc1Cl` [F72, methyl 5-amino-3-chloro-6-(4-chlorophenyl)picolinate], the pest or weed control at 140 g/ha reads like this: under setting [1], 0 to 29%; under setting [2], 0 to 29%; under setting [3], 0 to 29%; under setting [4], 0 to 29%; under setting [5], 0 to 29%; under setting [6], 0 to 29%. Further, the pest or weed control at 140 g/ha was in the range of 0 to 29% under setting [7]; 0 to 29% under setting [8]; 0 to 29% under setting [9]; 0 to 29% under setting [10]; 0 to 29% under setting [11]; 0 to 29% under setting [12]. Moreover, the pest or weed control at 140 g/ha under setting [13] was in the range of 0 to 29%.
Consider `COc1c(Cl)ccc(-c2nc(C(=O)O)c(Cl)c(Cl)c2F)c1F` [F73, 3,4-Dichloro-6-(4-chloro-2-fluoro-3-methoxyphenyl)-5-fluoropicolinic acid], for which the pest or weed control at 140 g/ha under setting [1] fell in the range of 0 to 29%; the pest or weed control at 140 g/ha under setting [2] fell in the range of 0 to 29%; the pest or weed control at 140 g/ha under setting [3] lay within 0 to 29%; the pest or weed control at 140 g/ha under setting [4] was in the range of 95 to 100%; the pest or weed control at 140 g/ha under setting [5] lay within 0 to 29%; the pest or weed control at 140 g/ha under setting [6] fell in the range of 0 to 29%. The pest or weed control at 140 g/ha reads like this: under setting [7], 0 to 29%; under setting [8], 0 to 29%; under setting [9], 0 to 29%; under setting [10], 0 to 29%; under setting [11], 0 to 29%; under setting [12], 0 to 29%. Moreover, the pest or weed control at 140 g/ha under setting [13] fell in the range of 0 to 29%.
For `COC(=O)c1nc(-c2ccc(Cl)c(OC)c2F)c(F)c(Cl)c1Cl` [F74, Methyl 3,4-dichloro-6-(4-chloro-2-fluoro-3-methoxyphenyl)-5-fluoropicolinate], the pest or weed control at 140 g/ha reads like this: under setting [1], 0 to 29%; under setting [2], 0 to 29%; under setting [3], 0 to 29%; under setting [4], 30 to 44%; under setting [5], 0 to 29%; under setting [6], 0 to 29%. For the same compound, the pest or weed control at 140 g/ha under setting [7] is 0 to 29%; the pest or weed control at 140 g/ha under setting [8] lay within 0 to 29%; the pest or weed control at 140 g/ha under setting [14] lay in the range of 0 to 29%; the pest or weed control at 140 g/ha under setting [9] is 0 to 29%; the pest or weed control at 140 g/ha under setting [10] lay within 0 to 29%; the pest or weed control at 140 g/ha under setting [11] was 0 to 29%. The pest or weed control at 140 g/ha lay within 0 to 29% under setting [12] and 0 to 29% under setting [13].
Regarding `COc1c(Cl)ccc(-c2cc(Cl)c(Cl)c(C(=O)O)n2)c1F` [F75, 3,4-Dichloro-6-(4-chloro-2-fluoro-3-methoxyphenyl) picolinic acid], the pest or weed control at 140 g/ha was 0 to 29% under setting [1]; 85 to 94% under setting [2]; 0 to 29% under setting [3]; 95 to 100% under setting [4]; 30 to 44% under setting [5]; 0 to 29% under setting [6]. Moreover, the pest or weed control at 140 g/ha by setting is: under setting [7], 0 to 29%; under setting [8], 95 to 100%; under setting [14], 30 to 44%; under setting [9], 0 to 29%; under setting [10], 45 to 59%; under setting [11], 0 to 29%. The pest or weed control at 140 g/ha lay in the range of 30 to 44% under setting [12] and 0 to 29% under setting [13].
For the compound `COC(=O)c1nc(-c2ccc(Cl)c(OC)c2F)cc(Cl)c1Cl` [F76, methyl 3,4-dichloro-6-(4-chloro-2-fluoro-3-methoxyphenyl)picolinate], the pest or weed control at 140 g/ha runs as follows: under setting [1], 0 to 29%; under setting [2], 30 to 44%; under setting [3], 0 to 29%; under setting [4], 45 to 59%; under setting [5], 0 to 29%; under setting [6], 30 to 44%. Further, the pest or weed control at 140 g/ha by setting is: under setting [7], 0 to 29%; under setting [8], 0 to 29%; under setting [14], 30 to 44%; under setting [9], 0 to 29%; under setting [10], 0 to 29%; under setting [11], 0 to 29%. In addition, the pest or weed control at 140 g/ha reads like this: under setting [12], 0 to 29%; under setting [13], 0 to 29%.
In the case of `CCOC(=O)c1nc(-c2ccc(Cl)c(OC)c2F)cc(OCC)c1N` [F77, ethyl 3-amino-6-(4-chloro-2-fluoro-3-methoxyphenyl)-4-ethoxypicolinate], the pest or weed control at 140 g/ha runs as follows: under setting [1], 0 to 29%; under setting [3], 0 to 29%; under setting [4], 45 to 59%; under setting [5], 0 to 29%; under setting [6], 0 to 29%; under setting [7], 0 to 29%. Moreover, the pest or weed control at 140 g/ha reads like this: under setting [8], 0 to 29%; under setting [14], 0 to 29%; under setting [9], 0 to 29%; under setting [10], 0 to 29%; under setting [11], 0 to 29%; under setting [12], 0 to 29%. Besides, the pest or weed control at 140 g/ha under setting [13] lay in the range of 0 to 29%.
Turning to `COc1c(Cl)ccc(-c2ccc(Cl)c(C(=O)O)n2)c1F` [F78, 3-chloro-6-(4-chloro-2-fluoro-3-methoxyphenyl)picolinic acid], the pest or weed control at 140 g/ha by setting is: under setting [1], 0 to 29%; under setting [2], 45 to 59%; under setting [3], 0 to 29%; under setting [4], 75 to 84%; under setting [5], 60 to 74%; under setting [6], 0 to 29%. The pest or weed control at 140 g/ha lay in the range of 0 to 29% under setting [7]; 0 to 29% under setting [8]; 45 to 59% under setting [14]; 0 to 29% under setting [9]; 0 to 29% under setting [10]; 0 to 29% under setting [11]. Further, the pest or weed control at 140 g/ha runs as follows: under setting [12], 30 to 44%; under setting [13], 0 to 29%.
For the compound `O=C(OCc1cccnc1)c1nc(-c2ccc(C(F)(F)F)cc2Cl)ccc1Cl` [F79, Pyridin-3-ylmethyl 3-chloro-6-(2-chloro-4-(trifluoromethyl)phenyl)picolinate], the pest or weed control at 140 g/ha under setting [1] lay within 60 to 74%; the pest or weed control at 140 g/ha under setting [2] lay within 95 to 100%; the pest or weed control at 140 g/ha under setting [3] lay in the range of 75 to 84%; the pest or weed control at 140 g/ha under setting [4] fell in the range of 95 to 100%; the pest or weed control at 140 g/ha under setting [5] lay within 85 to 94%; the pest or weed control at 140 g/ha under setting [6] was in the range of 0 to 29%. Moreover, the pest or weed control at 140 g/ha by setting is: under setting [7], 95 to 100%; under setting [8], 95 to 100%; under setting [14], 95 to 100%; (KCHSC: kochia (Bassia scoparia), read-out: Visual Growth Reduction (%) 14 Days After Application, KCHSC) 95 to 100%; under setting [9], 30 to 44%; under setting [10], 95 to 100%. Also, the pest or weed control at 140 g/ha fell in the range of 95 to 100% under setting [11], 0 to 29% under setting [12] and 75 to 84% under setting [13].
